This experiment has as its system 361931-004-R-J1-PDC multicell spheroid viability. Description: Anticancer human tumor 361931-004-R-J1-PDC patient-derived colon adenocarcinoma cell line growth inhibition [PI3K]. To be noted: for viability, T/C: stronger effect = lower value. The method, boiled down:
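Spheroid viability read-out. Co-cultures contained the tumor line plus HUVEC and human MSCs. Each agent was paired with a PI3K inhibitor (inavolisib, alpelisib, duvelisib, copanlisib) across half-log dilutions starting at clinical Cmax, or at 10 microM when Cmax was unknown.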

Where [1] appears, read: curve of first compound, second compound 0.00316 µM.
[2] abbreviates: curve of first compound, second compound 0.01 µM.
[3] abbreviates: curve of first compound, second compound 0.0316 µM.
Setting [4] is: curve of first compound, second compound 0.1 µM.
[5] abbreviates: curve of first compound, second compound 0.316 µM.
Where [6] appears, read: curve of first compound, second compound 1 µM.
[7] abbreviates: second compound 0.00316 µM, first compound 0.0316 µM.
[8] abbreviates: second compound 0.00316 µM, first compound 0.1 µM.
[9] abbreviates: second compound 0.00316 µM, first compound 0.316 µM.
The mark [10] stands for this setting: second compound 0.00316 µM, first compound 1 µM.
Where [11] appears, read: second compound 0.00316 µM, first compound 3.16 µM.
Where [12] appears, read: second compound 0.00316 µM, first compound 10 µM.
Where [13] appears, read: second compound 0.01 µM, first compound 0.0316 µM.
[14] abbreviates: second compound 0.01 µM, first compound 0.1 µM.
Where [15] appears, read: second compound 0.01 µM, first compound 0.316 µM.
The mark [16] stands for this setting: second compound 0.01 µM, first compound 1 µM.
Setting [17] is: second compound 0.01 µM, first compound 3.16 µM.
[18] abbreviates: second compound 0.01 µM, first compound 10 µM.
Where [19] appears, read: second compound 0.0316 µM, first compound 0.0316 µM.
The mark [20] stands for this setting: second compound 0.0316 µM, first compound 0.1 µM.
Setting [21] is: second compound 0.0316 µM, first compound 0.316 µM.
The mark [22] stands for this setting: second compound 0.0316 µM, first compound 1 µM.
[23] abbreviates: second compound 0.0316 µM, first compound 3.16 µM.
Where [24] appears, read: second compound 0.0316 µM, first compound 10 µM.
Where [25] appears, read: second compound 0.1 µM, first compound 0.0316 µM.
The mark [26] stands for this setting: second compound 0.1 µM, first compound 0.1 µM.
The mark [27] stands for this setting: second compound 0.1 µM, first compound 0.316 µM.
The mark [28] stands for this setting: second compound 0.1 µM, first compound 1 µM.
Where [29] appears, read: second compound 0.1 µM, first compound 3.16 µM.
[30] abbreviates: second compound 0.1 µM, first compound 10 µM.
Setting [31] is: second compound 0.316 µM, first compound 0.0316 µM.
The mark [32] stands for this setting: second compound 0.316 µM, first compound 0.1 µM.
The mark [33] stands for this setting: second compound 0.316 µM, first compound 0.316 µM.
Setting [34] is: second compound 0.316 µM, first compound 1 µM.
Setting [35] is: second compound 0.316 µM, first compound 3.16 µM.
Setting [36] is: second compound 0.316 µM, first compound 10 µM.
Where [37] appears, read: second compound 1 µM, first compound 0.0316 µM.
[38] abbreviates: second compound 1 µM, first compound 0.1 µM.
Setting [39] is: second compound 1 µM, first compound 0.316 µM.
The mark [40] stands for this setting: second compound 1 µM, first compound 1 µM.
Setting [41] is: second compound 1 µM, first compound 3.16 µM.
Setting [42] is: second compound 1 µM, first compound 10 µM.

Several values for one entry are separate records, joined by “and”; a condition that tells them apart may be missing. Equal entries are not always repeated.

One may read the IC50 as the concentration that gives 50% inhibition. The viability, T/C is the result in the treated group divided by that in the control group, in per cent.
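Also: spheroids exposed to agents for seven days before readout.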

Turning to `Cn1ncc(Cl)c1-c1cc(C(=O)NC(CN)Cc2cccc(F)c2)sc1Cl` (stereo not given) + CC(Nc1ccc2c(c1)OCCn1cc(N3C(=O)OCC3C(F)F)nc1-2)C(N)=O, the half-inhibitory concentration (IC50) under setting [1] turned out to be 1090 nM; the IC50 under setting [2] was 900 nM; the IC50 under setting [3] was determined as 695 nM; the IC50 under setting [4] is 730 nM; the IC50 under setting [5] came to 965 nM; the IC50 under setting [6] was found to be 654 nM. Moreover, the viability, T/C runs as follows: under setting [7], 92.5%; under setting [8], 91.9%; under setting [9], 76.6%; under setting [10], 50.9%; under setting [11], 32.2%; under setting [12], 22.6%. Also, the viability, T/C runs as follows: under setting [13], 99%; under setting [14], 94.5%; under setting [15], 68.7%; under setting [16], 48.4%; under setting [17], 29%; under setting [18], 15.4%. The viability, T/C was 103% under setting [19]; 110% under setting [20]; 75.2% under setting [21]; 37.3% under setting [22]; 25.8% under setting [23]; 12.8% under setting [24]. Moreover, the viability, T/C under setting [25] is 85%; the viability, T/C under setting [26] is 87.7%; the viability, T/C under setting [27] is 67%; the viability, T/C under setting [28] was 41.6%; the viability, T/C under setting [29] is 26.1%; the viability, T/C under setting [30] is 12.8%. In addition, the viability, T/C is 90.1% under setting [31]; 77.9% under setting [32]; 68.8% under setting [33]; 54.2% under setting [34]; 22.4% under setting [35]; 14.6% under setting [36]. The viability, T/C is, setting by setting: under setting [37], 82.6%; under setting [38], 79.4%; under setting [39], 59.5%; under setting [40], 45.1%; under setting [41], 24%; under setting [42], 16.1%.

As to `C#Cc1c(F)ccc2cc(O)cc(-c3ncc4c(N5CC6CCC(C5)N6)nc(OCC56CCCN5CC(F)C6)nc4c3F)c12` (stereo not given) + CC(Nc1ccc2c(c1)OCCn1cc(N3C(=O)OCC3C(F)F)nc1-2)C(N)=O, the IC50 runs as follows: under setting [1], more than 10000 nM; under setting [2], more than 10000 nM; under setting [3], more than 10000 nM; under setting [4], more than 10000 nM; under setting [5], more than 10000 nM; under setting [6], 1760 nM. Also, the viability, T/C by setting is: under setting [7], 99.7%; under setting [8], 108%; under setting [9], 93.5%; under setting [10], 100%; under setting [11], 89.6%; under setting [12], 62.3%. Further, the viability, T/C is, setting by setting: under setting [13], 101%; under setting [14], 104%; under setting [15], 81%; under setting [16], 92.1%; under setting [17], 75.3%; under setting [18], 71.3%. Further, the viability, T/C was 101% under setting [19]; 100% under setting [20]; 106% under setting [21]; 81.3% under setting [22]; 84.3% under setting [23]; 55.9% under setting [24]. The viability, T/C was 93.8% under setting [25]; 94.2% under setting [26]; 76% under setting [27]; 75% under setting [28]; 68.5% under setting [29]; 53.4% under setting [30]. Moreover, the viability, T/C was 86.6% under setting [31]; 86% under setting [32]; 68.2% under setting [33]; 55.2% under setting [34]; 57.1% under setting [35]; 50% under setting [36]. Moreover, the viability, T/C was 78.7% under setting [37]; 71.2% under setting [38]; 64.6% under setting [39]; 53.4% under setting [40]; 46.2% under setting [41]; 35.1% under setting [42].

As for `Cn1nccc1Nc1nccc(-c2ccn(C(CO)c3ccc(Cl)c(F)c3)c(=O)c2)n1` (stereo not given) + CC(Nc1ccc2c(c1)OCCn1cc(N3C(=O)OCC3C(F)F)nc1-2)C(N)=O, the IC50 was 8690 nM under setting [1]; 7800 nM under setting [2]; 6080 nM under setting [3]; 3100 nM under setting [4]; 2310 nM under setting [5]; 1090 nM under setting [6]. Moreover, the viability, T/C under setting [7] is 103%; the viability, T/C under setting [8] was 96.7%; the viability, T/C under setting [9] is 92.7%; the viability, T/C under setting [10] is 88.8%; the viability, T/C under setting [11] is 76.6%; the viability, T/C under setting [12] is 45.6%. Besides, the viability, T/C is 120% under setting [13]; 105% under setting [14]; 93.9% under setting [15]; 84.1% under setting [16]; 76.5% under setting [17]; 41.4% under setting [18]. Moreover, the viability, T/C under setting [19] was 106%; the viability, T/C under setting [20] was 93%; the viability, T/C under setting [21] was 85.8%; the viability, T/C under setting [22] is 82.5%; the viability, T/C under setting [23] was 70.6%; the viability, T/C under setting [24] was 36%. Further, the viability, T/C is, setting by setting: under setting [25], 97.6%; under setting [26], 97.8%; under setting [27], 89.3%; under setting [28], 71.9%; under setting [29], 50.5%; under setting [30], 25.5%. Besides, the viability, T/C runs as follows: under setting [31], 95.3%; under setting [32], 86.5%; under setting [33], 77.8%; under setting [34], 72.9%; under setting [35], 40.7%; under setting [36], 13.2%. The viability, T/C under setting [37] was 69.8%; the viability, T/C under setting [38] is 83.3%; the viability, T/C under setting [39] is 70%; the viability, T/C under setting [40] is 52.1%; the viability, T/C under setting [41] was 22.8%; the viability, T/C under setting [42] was 9.78%.

As to `CC(=O)c1c(C)c2cnc(Nc3ccc(N4CCNCC4)cn3)nc2n(C2CCCC2)c1=O`, the viability, T/C by setting is: (compound 0.000316 µM) 103% [middle of 4 runs]; (compound 0.001 µM) 105% [middle of 4 runs]; (compound 0.00316 µM) 100% [middle of 4 runs]; (compound 0.01 µM) 103% [middle of 4 runs]; (compound 0.0316 µM) 108% (2×) and 92.8% and 104%; (compound 0.1 µM) 86.5% [middle of 4 runs]. The 50% inhibitory concentration (IC50) (curve of compound) was more than 100 nM.

Consider `CNC(=O)c1ccc(N2C(=S)N(c3ccc(C#N)c(C(F)(F)F)c3)C(=O)C2(C)C)cc1F`, for which the viability, T/C reads like this: (compound 0.0316 µM) 101% [middle of 4 runs]; (compound 0.1 µM) 101% [middle of 4 runs]; (compound 0.316 µM) 104% [middle of 4 runs]; (compound 1 µM) 110% and 103% (2×) and 102%; (compound 3.16 µM) 98.6% [middle of 4 runs]; (compound 10 µM) 92.4% [middle of 4 runs]. Moreover, for the setting “curve of compound”, the IC50 is more than 10000 nM.

Take `Cn1cnc2c(F)c(Nc3ccc(Br)cc3Cl)c(C(=O)NOCCO)cc21`: the viability, T/C by setting is: (compound 0.00949 µM) 97.8% [middle of 4 runs]; (compound 0.03 µM) 92.1% [middle of 4 runs]; (compound 0.0949 µM) 90% [middle of 4 runs]; (compound 0.3 µM) 86.4% [middle of 4 runs]; (compound 0.949 µM) 84% [middle of 4 runs]; (compound 3 µM) 62.8% [middle of 4 runs]. For the same compound, for the setting “curve of compound”, the 50% inhibitory concentration (IC50) was 2440 nM and > 3000 nM and 2720 nM.

Take `CC1(C)CCC(Nc2ncc(C(F)(F)F)c(-c3c[nH]c4c(P(C)(C)=O)c(C#N)ccc34)n2)CN1` (stereo not given): the viability, T/C is 94.6% [middle of 4 runs] (compound 0.1 µM) and 12.9% [middle of 4 runs] (compound 10 µM). For the same compound, the IC50 (curve of compound) was 5.63 µM [middle of 4 runs].

The values above are taken from PubChem BioAssay AID1963979 (Molecular Pharmacology Branch, DTP, NCI, 2024).
